Laboratory results: paper PMC8509398, “Proteolytic Cleavage of Bioactive Peptides and Protease-Activated Receptors in Acute and Post-Colitis” (International Journal of Molecular Sciences, 2021)
Values belong to the molecule of their own block, whether it stands above or below them. Residues, ends and D or L forms follow the SMILES beside them. *: point of attachment. AMC = Cc1cc(=O)oc2cc(N*)ccc12; Boc = CC(C)(C)OC(=O)*

Assays:
[1] = target: pancreatic elastase I (Sus scrofa, UniProt P00772); assay: Cleavage of peptides by purified pancreatic elastase, MALDI-TOF/TOF; settings: 25 nM protease, 10 µM peptide, 37 °C, time points 2, 5, 10, 30 min
Excerpt: Trypsin-like proteases included in the experiments are trypsin-1, -2 and -3, tryptase (Enzo LifeSciences), thrombin (Sigma-Aldrich) and cathepsin G (Sigma-Aldrich). Trypsin-1, -2 and -3 were produced as described by Koistinen et al. and Wu et al.. Two elastase-like enzymes, neutrophil elastase (Enzo LifeSciences, Farmingdale, NY, USA) and pancreatic elastase I (Sigma-Aldrich) were included as well. All enzymes were from human origin except for pancreatic elastase from porcine pancreas.
Reaction mixtures with purified enzymes were compiled in an identical way. […] Substance P was added as the standard peptide except for the reaction mixtures with substance P or bradykinin as the peptide of interest, where angiotensin II (Bachem) was added.
The TFA mixtures were thawed on ice and desalted using C18 zip-tips (Merck Millipore®, Burlington, MA, USA) with a capacity of 5 µg protein. Retained peptide fragments were eluted directly on the MALDI target plate. Next, 0.5 µL of a 2.5 mg/mL α-cyano-4-hydroxycinnamic acid (Sigma-Aldrich) matrix solution (in 70% acetonitrile, 0.1% TFA) was spotted on top of the sample. A 6-Peptide mixture Kit (AB Sciex, Framingham, MA, USA) containing bradykinin (2–9), angiotensin I, glu1-fibrinopeptide, ACTH (1–17), ACTH (18–39) and ACTH (7–38) was diluted with matrix and spotted on the plate as well.
MS and MS/MS data for peptide fragment identification were obtained with a MALDI-TOF/TOF instrument (4800 MALDI TOF/TOF™, Applied Biosystems, Waltham, MA, USA) and instrument parameters were set using 4000 Series Explorer™ software. MS spectra were recorded in positive reflector mode in a mass range from 500 to 4000 Da and laser intensity of 4500–4800 Hz. The spectra were calibrated using the calibration mixture mentioned above to a mass tolerance of 0.1 Da. MS/MS spectra were recorded with high-energy collision-induced dissociation and the laser intensity was increased by 10%.
Identified fragments were confirmed using the MS/MS spectra and mMass 5.5.0 by Martin Strohalm. The relative intensities of the fragments were calculated as the ratio of the intensity of the peak of interest to the intensity of the peak of the standard peptide.

[2] = tested on: T-cell transfer colitis mouse model; settings: treated mice; cited from earlier work
[3] = target: thrombin (Homo sapiens, UniProt P00734); assay: Michaelis-Menten constant of fluorogenic substrates with thrombin; type: biochemical; parameters: thrombin (Sigma-Aldrich); purchased Sigma-Aldrich; settings: thrombin 0.19 nM, range of substrate concentrations, 37 °C, fluorescence measured kinetically 20 min, Michaelis-Menten fit, experiment repeated twice
Experimental: (§1) Preheated substrate was added to colonic lysate to start the reaction. Fluorescence was measured for 20 min at 37 °C on a Tecan Infinite F200 pro microtiter plate reader. A calibration curve with AMC (Sigma-Aldrich, Saint Louis, MO, USA) was used to determine activities in units per liter, where a unit is defined as the amount of enzyme that catalyzes the conversion of one micromole of the substrate per minute in the specific experimental conditions described. Activities were normalized to protein concentration determined with Bradford to obtain activities in units per gram protein. Km for trypsin-1, trypsin-2, trypsin-3 and thrombin with Boc-QAR-AMC and Tos-GPR-AMC were also determined (Figure S5).
(§2) Figure S 5: Michaelis-Menten constant (Km) for (a) trypsin-1, (b) trypsin-2, (c) trypsin-3 and (d) thrombin with Boc-QAR-AMC and Tos -GPR-AMC. The Km was determined with Boc -QAR-AMC and Tos -GPR-AMC by adding trypsin-1 (0.015 nM), trypsin -2 (0.015 nM), trypsin -3 (0.015 nM) or thrombin (0.19 nM) to a range of substrate concentrations at 37° C. The fluorescence was measured kinetically for 20 min at 37° C on a Tecan F200 multi-plate reader. The results in RFU/min were recalculated by dividing them by the slope of a calibration curve with AMC (0.78 – 10 µM) to obtain results in µmol/L/min. […]

[4] = target: T1, trypsin-3 (Homo sapiens, UniProt P35030); assay: Michaelis-Menten constant of fluorogenic substrates with trypsin-3; type: biochemical; parameters: made in house; settings: trypsin-3 0.015 nM, range of substrate concentrations, 37 °C, fluorescence measured kinetically 20 min, Michaelis-Menten fit, experiment repeated twice
T1 sequence (P35030 1-304): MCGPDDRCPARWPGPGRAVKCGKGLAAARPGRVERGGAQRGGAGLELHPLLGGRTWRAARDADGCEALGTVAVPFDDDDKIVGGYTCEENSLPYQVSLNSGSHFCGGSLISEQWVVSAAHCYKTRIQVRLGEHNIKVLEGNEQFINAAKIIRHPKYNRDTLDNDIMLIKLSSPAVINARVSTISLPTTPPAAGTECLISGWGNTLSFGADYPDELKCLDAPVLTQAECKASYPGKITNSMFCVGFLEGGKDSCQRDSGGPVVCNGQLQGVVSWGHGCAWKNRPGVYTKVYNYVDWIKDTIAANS
Experimental: as §1, §2

[5] = substrate: Cc1cc(=O)oc2cc(NC(=O)[C@H](CCCNC(=N)N)NC(=O)[C@H](C)NC(=O)[C@H](CCC(N)=O)NC(=O)OC(C)(C)C)ccc12; assay: Michaelis-Menten constant of fluorogenic substrates with trypsin-2; type: biochemical, human; settings: other: trypsin-2 0.015 nM, range of substrate concentrations, 37 °C, fluorescence measured kinetically 20 min, Michaelis-Menten fit, experiment repeated twice
Experimental: as §1, §2

Chain of pancreatic elastase I (P00772 27-266): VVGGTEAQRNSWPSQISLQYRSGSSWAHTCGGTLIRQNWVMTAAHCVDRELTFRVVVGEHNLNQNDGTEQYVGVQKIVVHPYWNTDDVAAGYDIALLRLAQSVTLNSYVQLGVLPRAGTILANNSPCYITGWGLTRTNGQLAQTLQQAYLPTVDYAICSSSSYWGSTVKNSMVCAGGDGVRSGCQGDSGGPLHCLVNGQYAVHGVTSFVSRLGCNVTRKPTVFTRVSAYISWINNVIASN

Molecule: CSCC[C@H](NC(=O)[C@H](Cc1ccccc1)NC(=O)CNC(=O)CNC(=O)[C@@H](N)Cc1ccc(O)cc1)C(=O)O [M-enkephalin, Met-enkephalin]
Incubation time at which the first cleavage or decrease of the full-length peptide was observed, pancreatic elastase [1]: 30 min

Molecule: CC(C)C[C@H](NC(=O)[C@H](Cc1ccccc1)NC(=O)CNC(=O)CNC(=O)[C@@H](N)Cc1ccc(O)cc1)C(=O)O [L-enkephalin, Leu-enkephalin]
Incubation time at which the first cleavage or decrease of the full-length peptide was observed, pancreatic elastase [1]: 30 min

Molecule: CC(=O)Nc1ccc(OP(=O)(Oc2ccc(NC(C)=O)cc2)C(Cc2ccc(N=C(N)N)cc2)NC(=O)OCc2ccccc2)cc1.Cl (stereo not shown) [UAMC-00050]
Effect on intestinal inflammation and permeability [2]: ameliorated intestinal inflammation and permeability | Effect on mRNA expression of PAR4 [2]: decreased the mRNA expression of PAR4

Km [3]: 2.51 ± 0.285 mM | Km [4]: 4.6 ± 0.3 µM
Molecule: Cc1cc(=O)oc2cc(NC(=O)[C@H](CCCNC(=N)N)NC(=O)[C@H](C)NC(=O)[C@H](CCC(N)=O)NC(=O)OC(C)(C)C)ccc12 [Boc-QAR-AMC] (Boc-Gln-Ala-Arg-{AMC})

B1: trypsin-2 (Homo sapiens) (protein)
chain: IVGGYICEENSVPYQVSLNSGYHFCGGSLISEQWVVSAGHCYKSRIQVRLGEHNIEVLEGNEQFINAAKIIRHPKYNSRTLDNDILLIKLSSPAVINSRVSAISLPTAPPAAGTESLISGWGNTLSSGADYPDELQCLDAPVLSQAECEASYPGKITNNMFCVGFLEGGKDSCQGDSGGPVVSNGELQGIVSWGYGCAQKNRPGVYTKVYNYVDWIKDTIAANS
notes: made in house
Km [5]: 11.8 ± 0.1 µM
